From patent publication US20240245670A1, “DOSING REGIMEN AND PHARMACEUTICAL COMBINATION COMPRISING 3-(1-OXOISOINDOLIN-2-YL)PIPERIDINE-2,6-DIONE DERIVATIVES” (Novartis AG, priority 2018, published 2024)
Entries after “also recorded” stand apart in the source; their conditions may differ.

Columns and labels:
[1] = test system: IKZF2 expression in FOXP3+ T cells from PBMCs; assay: PD after repeated daily oral dosing in immunized cynomolgus monkeys: IKZF2 by flow cytometry (FIG. 9A); assay type: in vivo, cynomolgus monkey
Method: FIG. 9A. is a graph showing the degradation of IKZF2 measured in FOXP3+ T cells upon repeated daily dosing in immunized cynomolgus monkeys treated daily with Compound I-57. Compound treatment was initiated at day 5.
The PK/PD relationship of I-57 was further examined in cynomolgus monkeys after repeated daily oral doses of 0.1 and 3 mg/kg. In this study, a cohort of animals were initially immunized with an antigen-adjuvant mixture (KLH/Squalene). The experiment was designed to assess the effect of I-57 exposure, and the resulting IKZF2 degradation, on immune response during immunization to test the hypothesis that IKZF2 degradation would result in increased proliferation of stimulated T-cells. In the experiment, daily I-57 oral treatment was initiated 5 days after immunization. An immunization booster dose was administered on day 15. I-57 plasma concentration and IKZF2 expression (as determined by flow cytometry) in FOXP3+ T cells from PBMCs were determined (FIG. 9A and FIG. 9B).
Consistent with previous findings, IKZF2 degradation was detected 24 h after the first dose (at day 6) (FIG. 9A and FIG. 9B). The levels of IKZF2 decreased further upon repeat dosing and reached a steady-state level approximately 72 h after initiation of treatment. This level of degradation was maintained throughout the remainder of the treatment (24 days).

[2] = molecular target: T1, IKZF2 (Oryctolagus cuniculus, UniProt A0A5F9CPW0); assay: IKZF2 degradation in primary PBMCs in vitro (FIG. 3); assay type: cell-based; details: primary rabbit PBMCs; concentrations up to 10 μM
T1 construct: endogenous in cells; host or cells: primary rabbit PBMCs
Method: FIG. 3. is a bar graph showing the degradation of IKZF2 in primary PBMCs obtained from rabbit, dog, pig, cynomolgus monkey and human, and in primary splenocytes of mouse and rat and treated with Compound I-57.
I-57 mediated degradation of IKZF2 was assessed in primary PBMCs obtained from rabbit, dog, pig, cynomolgus monkey, and human, and in primary splenocytes of mouse and rat. […] Species-specificity due to species specific alteration CRBN primary structure have previously been described with other compounds known to interact with the CRBN ubiquitin ligase complex to elicit protein specific degradation (Krönke et al, 2015).

[3] = test system: IKZF2 expression in FOXP3+ T cells from PBMCs; assay: PD after single oral dose in cynomolgus monkey: IKZF2 expression by flow cytometry; assay type: in vivo
Method: FIG. 4 is a graph showing the PK/PD relationship in the cynomolgus monkey after a single oral of 0.01, 0.1 or 1 mg/kg of Compound I-57.
FIG. 5. is a graph showing plasma concentration in the cynomolgus monkey of Compound I-57 and IKZF2 expression (as determined by flow cytometry) in FOXP3+ T cells from PBMCs after a single oral of 0.01, 0.1 or 1 mg/kg of Compound I-57.
The PK/PD relationship of I-57 was examined in cynomolgus monkeys after a single oral dose of 0.01, 0.1 or 1 mg/kg. I-57 plasma concentration and IKZF2 expression (as determined by flow cytometry) in FOXP3+ T cells from PBMCs were determined (FIG. 4 and FIG. 5).
Decreased (percentage change) IKZF2 positive FOXP3-cells, as determined by flow cytometry, were detectable at 4h post dose in the 1 mg/kg and 0.1 mg/kg groups, reaching maximum at 12-24 hrs post-dose and maintaining this maximum for 12-24 hrs.

[4] = In vivo non-clinical PK / high dose PK and toxicology exposure; design: species or system cynomolgus monkey; details: monkey
Method: The in vivo non-clinical PK profile of I-57 was investigated in mouse, rat, dog and cynomolgus monkey using I-57 free base. […] After p.o. administration, the absorption of I-57 was rapid with peak blood concentration (Tmax) occurring between 1 and 4 hours. […] In high dose PK and toxicology studies with I-57 the exposures in mouse, rat and monkey increased with dose.

[5] = Toxicology in rats (5-day and 4-week GLP studies); assay type: in vivo
Source text: The non-clinical safety profile of I-57 was established in vitro, and in vivo in rats and cynomolgus monkeys in studies up to 4-weeks duration. Based on the outcome of these studies, QTc interval prolongation was identified as the principal safety signal for I-57. There were other toxicities such as diarrhea and vomiting in monkeys, and mortality, clinical signs and target organ toxicities in rats; however, these occurred at exposures far above those expected to result in clinical activity.
Clinical signs, decreases in body weight and food consumption, and clinical pathology changes reflecting inflammation, renal and liver injury, and stress were generally evident in the pre-terminal animals. Kidney toxicity was evident in rats at doses >100 mg/kg/day and was characterized by increased weight, hematuria, proteinuria, with or without increased blood urea and creatinine, degeneration, regeneration and inflammation at 300 mg/kg/day.
Similar exposure in the clinic would require doses in human of approximately 2,000 and 5,000 mg QD based on the human PK model. Activity is anticipated well below this dose level.

[6] = molecular target: IKZF2 (Homo sapiens, UniProt Q96SW2+Q9UKS7); assay: Degradation of prolabel-tagged target proteins in HEK293T cells (FIG. 1); assay type: cell-based; design: prolabel; expressed in transfected cells; host or cells: HEK293T; details: HEK293T cells overexpressing prolabel-tagged target proteins; various concentrations
Source text: FIG. 1. is a graph showing the selectivity of Compound I-57 for the degradation of IKZF2 over the other IKAROS family members, IKZF1, IKZF4, and GSPT1 at various concentrations in HEK293T cells overexpressing prolabel-tagged target proteins.
Although the specific transcriptional targets of IKZF2 remain to be defined, IKZF2 binds to and represses transcription from the IL-2 promoter region (Baine 2013). […] Finally, an in vitro assay recapitulating hallmarks of T cell dysfunction/exhaustion, by sequential TCR stimulation of isolated primary human T cells, was used to test the hypothesis that […] would rescue the exhausted phenotype and enhance Teff cell activity. […] In addition to IKZF1, other known cereblon substrates including translation termination factor G1 to S phase transition 1 (GSPT1) are not degraded by I-57 (FIG. 1).

IKZF2 (Homo sapiens, UniProt Q96SW2+Q9UKS7), sequence (Q9UKS7 whole entry): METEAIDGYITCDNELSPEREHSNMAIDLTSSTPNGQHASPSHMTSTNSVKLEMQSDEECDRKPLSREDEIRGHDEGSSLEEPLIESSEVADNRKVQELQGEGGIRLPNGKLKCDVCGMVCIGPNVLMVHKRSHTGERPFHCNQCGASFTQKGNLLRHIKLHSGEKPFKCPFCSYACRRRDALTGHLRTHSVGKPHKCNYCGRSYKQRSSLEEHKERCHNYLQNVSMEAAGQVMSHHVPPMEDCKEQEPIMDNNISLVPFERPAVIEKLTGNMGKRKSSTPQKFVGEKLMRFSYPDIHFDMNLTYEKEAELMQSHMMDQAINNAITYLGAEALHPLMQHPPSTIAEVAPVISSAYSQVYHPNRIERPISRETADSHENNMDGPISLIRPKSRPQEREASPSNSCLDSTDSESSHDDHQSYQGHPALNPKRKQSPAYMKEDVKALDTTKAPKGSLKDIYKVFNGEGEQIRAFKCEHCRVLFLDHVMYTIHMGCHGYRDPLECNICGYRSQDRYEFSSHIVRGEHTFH
IKZF2 (Homo sapiens, UniProt Q96SW2+Q9UKS7), sequence (Q96SW2 whole entry): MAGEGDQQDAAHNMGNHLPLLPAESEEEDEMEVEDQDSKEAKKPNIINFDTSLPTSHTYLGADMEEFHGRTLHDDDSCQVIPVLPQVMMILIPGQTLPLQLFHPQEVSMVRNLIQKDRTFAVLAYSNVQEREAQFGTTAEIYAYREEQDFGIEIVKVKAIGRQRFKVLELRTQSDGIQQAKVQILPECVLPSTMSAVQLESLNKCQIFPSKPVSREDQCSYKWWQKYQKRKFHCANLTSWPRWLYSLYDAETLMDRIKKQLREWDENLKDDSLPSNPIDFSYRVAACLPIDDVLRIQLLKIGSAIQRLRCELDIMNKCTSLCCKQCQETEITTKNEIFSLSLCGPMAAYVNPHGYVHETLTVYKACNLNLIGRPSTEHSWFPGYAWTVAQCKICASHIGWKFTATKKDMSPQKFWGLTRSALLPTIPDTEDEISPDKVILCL
IKZF2 (Homo sapiens, UniProt Q96SW2+Q9UKS7), sequence (Q16531 whole entry partner): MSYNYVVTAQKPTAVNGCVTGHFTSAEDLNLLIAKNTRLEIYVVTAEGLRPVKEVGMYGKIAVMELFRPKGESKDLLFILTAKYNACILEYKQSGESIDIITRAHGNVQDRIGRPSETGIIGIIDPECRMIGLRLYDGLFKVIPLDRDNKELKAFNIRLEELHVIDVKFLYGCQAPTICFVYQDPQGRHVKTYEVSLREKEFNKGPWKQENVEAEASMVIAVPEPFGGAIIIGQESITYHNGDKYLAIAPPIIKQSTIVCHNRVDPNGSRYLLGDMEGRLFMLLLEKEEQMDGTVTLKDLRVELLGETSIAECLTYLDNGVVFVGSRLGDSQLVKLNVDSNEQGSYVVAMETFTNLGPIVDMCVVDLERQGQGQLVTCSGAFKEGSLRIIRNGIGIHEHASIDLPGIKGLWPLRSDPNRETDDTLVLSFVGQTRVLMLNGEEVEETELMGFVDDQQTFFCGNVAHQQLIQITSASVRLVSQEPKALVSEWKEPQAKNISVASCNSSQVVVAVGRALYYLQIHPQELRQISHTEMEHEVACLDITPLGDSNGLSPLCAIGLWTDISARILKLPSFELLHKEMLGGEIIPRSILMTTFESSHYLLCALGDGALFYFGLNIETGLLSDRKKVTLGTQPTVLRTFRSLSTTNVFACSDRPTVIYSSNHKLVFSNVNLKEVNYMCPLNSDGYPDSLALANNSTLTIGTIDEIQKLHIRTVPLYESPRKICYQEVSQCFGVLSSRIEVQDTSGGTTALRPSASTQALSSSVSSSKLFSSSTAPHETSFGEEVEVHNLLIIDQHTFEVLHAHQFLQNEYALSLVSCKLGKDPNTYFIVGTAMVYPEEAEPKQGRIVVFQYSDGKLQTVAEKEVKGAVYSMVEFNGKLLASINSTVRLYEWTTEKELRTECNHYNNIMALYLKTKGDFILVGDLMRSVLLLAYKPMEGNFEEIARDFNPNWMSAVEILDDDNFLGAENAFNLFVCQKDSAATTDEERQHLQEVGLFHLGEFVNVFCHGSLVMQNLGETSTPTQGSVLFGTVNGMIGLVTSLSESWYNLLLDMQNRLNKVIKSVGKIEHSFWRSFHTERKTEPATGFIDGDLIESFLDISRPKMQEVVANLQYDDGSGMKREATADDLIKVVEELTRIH
T1 sequence (A0A5F9CPW0 1-526): as the sequence (Q9UKS7 whole entry) above, with E68D, M234V, I266M, A373S, H423N, A449V counted along it

O=C1CCC(N2Cc3cc(C4CCN(Cc5ccccc5)CC4)ccc3C2=O)C(=O)N1 (stereo not shown) [Compound I-57, 3-(5-(1-benzylpiperidin-4-yl)-1-oxoisoindolin-2-yl)piperidine-2,6-dione]
time to steady-state level of IKZF2 ([1]; after initiation of treatment, repeat daily dosing): approximately 72 h | time at which IKZF2 degradation was detected ([1]; after the first dose (at day 6), daily oral 0.1 and 3 mg/kg): 24 h | degradation of IKZF2 [2]: Degradation was observed | time at which decreased IKZF2 positive FOXP3 cells were detectable ([3]; post dose, 1 mg/kg and 0.1 mg/kg groups): 4 h | duration for which maximum decrease was maintained ([3]; single oral dose): 12 to 24 h | dose dependence of decrease in IKZF2 positive cells ([3]; single oral dose of 0.01, 0.1 or 1 mg/kg): dose dependent | increase in AUC with dose ([4]; above 100 mg/kg): less than dose proportional | increase in AUC with dose ([4]; between 10 mg/kg and 100 mg/kg): slightly over-proportional | human dose required for similar exposure (AUC) ([5]; exposure associated with mortality and toxicity in rats at 300 mg/kg, human PK model): ~5,000 mg QD | urinary bladder findings ([5]; rat, in vivo, 300 mg/kg/day): Degenerative changes | doses at which kidney toxicity was evident ([5]; rats): > 100 mg/kg/day | doses at which mortality occurred ([5]; rats, females): > 300 mg/kg/day | degradation of IKZF2 [6]: potent and specific degrader; also recorded: potent and specific degradation
